# Reference: ChEMBL document CHEMBL4196109, “Chemical Strategies for Half-Life Extension of Biopharmaceuticals: Lipidation and Its Alternatives” (ACS Med Chem Lett, 2018)
# Experiments:
# [1] = biological target: Albumin (Homo sapiens, UniProt P02768); test: Binding affinity to human albumin; format: ADME; conditions: isolated protein
# [2] = system: Homo sapiens; test: Half life in sc dosed human; format: ADME, organism-based; conditions: in vivo
# Sequence of Albumin (P02768 whole entry): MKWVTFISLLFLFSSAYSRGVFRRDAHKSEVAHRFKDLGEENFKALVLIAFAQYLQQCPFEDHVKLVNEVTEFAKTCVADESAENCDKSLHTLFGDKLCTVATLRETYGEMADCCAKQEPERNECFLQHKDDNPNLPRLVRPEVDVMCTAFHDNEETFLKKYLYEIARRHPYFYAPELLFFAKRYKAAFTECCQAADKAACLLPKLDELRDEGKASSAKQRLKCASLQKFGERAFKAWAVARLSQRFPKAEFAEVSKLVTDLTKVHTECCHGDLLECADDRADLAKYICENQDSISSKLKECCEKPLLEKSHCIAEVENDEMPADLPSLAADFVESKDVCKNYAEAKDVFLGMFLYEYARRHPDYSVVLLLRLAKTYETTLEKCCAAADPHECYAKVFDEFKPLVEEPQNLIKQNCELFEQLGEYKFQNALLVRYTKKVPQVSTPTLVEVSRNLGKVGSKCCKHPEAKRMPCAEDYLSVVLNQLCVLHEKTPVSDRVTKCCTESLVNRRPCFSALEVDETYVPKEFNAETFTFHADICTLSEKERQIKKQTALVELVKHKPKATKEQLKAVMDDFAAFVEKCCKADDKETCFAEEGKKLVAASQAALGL
molecule,measurement,setting,value
NC(=O)[C@H](CCCCNC(=O)CSC[C@H](N)C(=O)O)NC(=O)COCCOCCNC(=O)CC[C@H](NC(=O)CC[C@H](NC(=O)COCCOCCNC(=O)CCCS(=O)(=O)NC(=O)CCCCCCCCCCCCCCc1nn[nH]n1)C(=O)O)C(=O)O,Activity,[1],> 99%
SEMAGLUTIDE,t1/2,[2],1 weeks
